Tested on: mouse Notch2
Assay: Notch cell-based assay (N2-CHO/DL-CHO co-culture, Dual-Glo luciferase, NICD production)
Conditions: N2-CHO/DL-CHO co-culture 16 H; five-point curve 3 μM-0.3 nM
Source text: The Notch cell-based assay was based on the interaction of Notch and its ligand in a co-culture system and utilized the Dual-Glo Luciferase Assay System (Promega) to monitor NICD production. Two stable cell lines, N2-CHO and DL-CHO, were established to express full-length mouse Notch2 and Delta respectively. Cells that expressed mouse Notch were also transfected with two plasmids, pTP1-Luc and pCMV-RLuc, to express firefly and Renilla luciferase. Expression of firefly luciferase was under the control of TP1 promoter that responded to NICD activation.
N2-CHO cells were seeded at 1×10^5/well in 24-well plates the day before transfection. On the second day, cells were double transfected with 3 μg/well pTP1-Luc (expressing firefly luciferase) and 0.3 ng/well pCMV-RLuc (expressing Renilla luciferase). After 6 H incubation, transfected N2-CHO cells were washed and DL-CHO cells (2×10^5 cells/well) were added.
Compounds were pre-mixed with DL-CHO cell suspension in a five-point curve. Typically, compound treatment was performed in duplicate with a serial 1:10 dilution (3 μM-0.3 nM) in DMSO. The final concentration of DMSO in a given culture was 1%. Controls included non-transfected cells and transfected cells treated with a GSI or DMSO only. Luciferase assays were performed after 16 H co-culture and compound treatment.
The luciferase assay was carried out according to manufacture's instructions. Briefly, cells were washed with PBS (Phosphate Buffered Saline), lysed with Passive Lysis Buffer (Promega), and incubated at room temperature for 20 min. Lysates were mixed with Dual-Glo Luciferase Reagent and the firefly luciferase activity was measured by reading the luminescence signal in the EnVision 2101 Multilabel reader. Dual-Glo Stop & Glo Reagent was then added to each well and the Renilla luciferase signal was measured.

**Q.** For Cc1ncc(-c2ccc(Nc3cccc4c3nc(-c3ccc(F)cc3)n4C(C)C)cn2)o1 [Compound 18], which “average IC50 values from the Notch cell-based assay (luciferase assay readouts)” value is on record?
**A.** Its value is “non-inhibitory”.
